Results from paper PMC5933782, “Molecular structures of cdc2-like kinases in complex with a new inhibitor chemotype” (PLoS ONE, 2018).

Key:
Assay in all cases: radiometric protein kinase assay
DYRK1B = DYRK1B (Homo sapiens, UniProt Q9Y463); assay type: biochemical; settings: for IC50: 15 μmol/L ATP, read-out: IC50 DYRK 1B
DYRK1A = DYRK1A (Homo sapiens, UniProt Q13627); assay type: biochemical; settings: for IC50: 15 μmol/L ATP, read-out: IC50 DYRK 1A
CK1δ/ε = assay type: biochemical, porcine; settings: for IC50: 15 μmol/L ATP, read-out: IC50 CK1
CDK9/cyclin T = CDK9/cyclin T (Homo sapiens, UniProt P50750)
Sequence of CDK9/cyclin T (P50750 whole entry): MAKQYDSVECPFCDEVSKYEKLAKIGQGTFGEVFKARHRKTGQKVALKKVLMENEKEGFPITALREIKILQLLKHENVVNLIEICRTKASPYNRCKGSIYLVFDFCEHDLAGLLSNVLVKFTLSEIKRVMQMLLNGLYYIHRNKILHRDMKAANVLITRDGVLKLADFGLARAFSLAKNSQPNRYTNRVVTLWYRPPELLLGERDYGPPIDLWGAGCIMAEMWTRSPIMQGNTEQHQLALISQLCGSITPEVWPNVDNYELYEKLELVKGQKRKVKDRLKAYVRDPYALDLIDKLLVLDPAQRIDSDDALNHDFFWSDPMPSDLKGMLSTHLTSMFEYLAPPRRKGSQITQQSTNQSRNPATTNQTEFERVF
Sequence of CDK9/cyclin T (O60563 whole entry partner): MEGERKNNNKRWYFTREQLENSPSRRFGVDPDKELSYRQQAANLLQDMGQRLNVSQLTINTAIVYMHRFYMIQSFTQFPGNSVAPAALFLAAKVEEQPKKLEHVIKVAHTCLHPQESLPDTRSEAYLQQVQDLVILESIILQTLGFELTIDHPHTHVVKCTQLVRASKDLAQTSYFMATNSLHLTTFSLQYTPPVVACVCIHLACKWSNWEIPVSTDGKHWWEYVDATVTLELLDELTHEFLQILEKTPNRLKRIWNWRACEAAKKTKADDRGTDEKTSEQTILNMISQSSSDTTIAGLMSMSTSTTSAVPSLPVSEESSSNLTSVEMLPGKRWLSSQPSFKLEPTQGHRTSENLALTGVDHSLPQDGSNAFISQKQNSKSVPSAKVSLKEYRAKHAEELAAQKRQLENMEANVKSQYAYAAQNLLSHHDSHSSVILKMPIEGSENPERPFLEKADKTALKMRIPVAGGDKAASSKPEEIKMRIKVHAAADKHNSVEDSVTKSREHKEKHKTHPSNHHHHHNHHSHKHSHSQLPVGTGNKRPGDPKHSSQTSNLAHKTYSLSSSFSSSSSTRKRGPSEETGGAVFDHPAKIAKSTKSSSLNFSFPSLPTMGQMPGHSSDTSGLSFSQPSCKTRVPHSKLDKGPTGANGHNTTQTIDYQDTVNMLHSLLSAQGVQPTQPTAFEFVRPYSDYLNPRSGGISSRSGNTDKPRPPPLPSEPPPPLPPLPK

CDK1/cyclin B = assay type: biochemical, starfish; settings: for IC50: 15 μmol/L ATP
CLK4 = CLK4 (Mus musculus, UniProt O35493)
Sequence of CLK4 (O35493 whole entry): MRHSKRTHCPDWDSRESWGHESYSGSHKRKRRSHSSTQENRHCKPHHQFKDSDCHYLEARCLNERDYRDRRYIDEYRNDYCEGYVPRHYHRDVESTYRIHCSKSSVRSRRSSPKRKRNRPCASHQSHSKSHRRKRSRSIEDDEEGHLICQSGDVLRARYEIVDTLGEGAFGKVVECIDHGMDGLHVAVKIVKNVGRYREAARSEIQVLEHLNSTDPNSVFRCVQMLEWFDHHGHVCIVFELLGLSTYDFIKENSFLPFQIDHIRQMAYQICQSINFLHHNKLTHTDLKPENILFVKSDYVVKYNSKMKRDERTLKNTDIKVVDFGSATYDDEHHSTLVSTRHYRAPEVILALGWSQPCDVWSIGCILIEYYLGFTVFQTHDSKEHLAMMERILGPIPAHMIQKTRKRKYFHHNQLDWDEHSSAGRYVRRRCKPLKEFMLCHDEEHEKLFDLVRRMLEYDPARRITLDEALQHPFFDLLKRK
Experimental: Buffers. Buffer A: 10 mM MgCl2, 1 mM EGTA, 1 mM DTT, 25 mM Tris-HCl pH 7.5, 50 μg heparin/mL. Buffer C: 60 mM β-glycerophosphate, 15 mM p-nitrophenylphosphate, 25 mM MOPS (pH 7.2), 15 mM EGTA, 15 mM MgCl2, 1 mM DTT, 1 mM sodium vanadate, 1 mM phenylphosphate.
Kinase activities were assayed in buffer A or C at 30°C at a final ATP concentration of 15 μmol/L. Blank values were subtracted and activities were expressed in percent of the maximal activity, i.e. in the absence of inhibitors. Controls were performed with appropriate dilutions of DMSO.
Their kinase activity was assayed in buffer A, with 1 mg histone H1/mL, in the presence of 15 μmol/L [γ-33P] ATP (3,000 Ci/mmol; 10 mCi/mL) in a final volume of 30 μL. After 30 min incubation at 30°C, the reaction was stopped by harvesting onto P81 phosphocellulose supernatant (Whatman) using a FilterMate harvester (Packard) and washing in 1% phosphoric acid. Scintillation fluid was added and the radioactivity measured in a Packard counter.
All data points for construction of dose response curves were recorded in triplicate.

CLK3 = CLK3 (Mus musculus, UniProt O35492)
Sequence of CLK3 (O35492 whole entry): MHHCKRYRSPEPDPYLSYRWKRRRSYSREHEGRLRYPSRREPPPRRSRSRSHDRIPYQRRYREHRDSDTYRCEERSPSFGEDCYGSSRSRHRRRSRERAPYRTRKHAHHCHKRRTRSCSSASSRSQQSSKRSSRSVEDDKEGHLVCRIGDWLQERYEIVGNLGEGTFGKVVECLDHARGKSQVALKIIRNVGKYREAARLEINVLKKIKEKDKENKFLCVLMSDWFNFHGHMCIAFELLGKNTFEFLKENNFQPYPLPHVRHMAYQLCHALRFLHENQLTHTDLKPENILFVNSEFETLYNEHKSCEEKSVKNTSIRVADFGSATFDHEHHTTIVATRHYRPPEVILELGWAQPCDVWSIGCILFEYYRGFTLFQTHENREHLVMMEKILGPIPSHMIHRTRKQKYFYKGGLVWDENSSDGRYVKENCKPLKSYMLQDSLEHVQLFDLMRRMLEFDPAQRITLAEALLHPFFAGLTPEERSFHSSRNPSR

DYRK3 = target: T1, DYRK3 (Homo sapiens, UniProt O43781); assay type: biochemical; settings: for IC50: 15 μmol/L ATP, read-out: IC50 DYRK 3
T1 sequence (O43781 1-588): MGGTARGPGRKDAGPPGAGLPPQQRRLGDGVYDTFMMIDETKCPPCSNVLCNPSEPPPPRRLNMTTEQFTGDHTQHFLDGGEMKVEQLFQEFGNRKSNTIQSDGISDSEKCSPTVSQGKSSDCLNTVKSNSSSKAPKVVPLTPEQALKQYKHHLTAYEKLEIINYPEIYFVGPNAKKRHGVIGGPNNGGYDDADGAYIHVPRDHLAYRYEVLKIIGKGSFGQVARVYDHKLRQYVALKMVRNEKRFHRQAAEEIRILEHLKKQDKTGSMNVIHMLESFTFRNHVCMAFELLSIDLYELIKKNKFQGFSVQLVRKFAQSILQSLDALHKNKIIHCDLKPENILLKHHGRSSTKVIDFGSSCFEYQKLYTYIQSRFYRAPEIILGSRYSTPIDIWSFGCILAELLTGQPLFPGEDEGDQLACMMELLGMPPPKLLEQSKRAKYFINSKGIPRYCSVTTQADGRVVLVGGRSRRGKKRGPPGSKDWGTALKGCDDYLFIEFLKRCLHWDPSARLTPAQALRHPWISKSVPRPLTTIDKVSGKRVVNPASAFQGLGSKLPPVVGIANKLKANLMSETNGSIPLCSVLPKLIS

CLK2 = CLK2 (Mus musculus, UniProt O35491)
Sequence of CLK2 (O35491 whole entry): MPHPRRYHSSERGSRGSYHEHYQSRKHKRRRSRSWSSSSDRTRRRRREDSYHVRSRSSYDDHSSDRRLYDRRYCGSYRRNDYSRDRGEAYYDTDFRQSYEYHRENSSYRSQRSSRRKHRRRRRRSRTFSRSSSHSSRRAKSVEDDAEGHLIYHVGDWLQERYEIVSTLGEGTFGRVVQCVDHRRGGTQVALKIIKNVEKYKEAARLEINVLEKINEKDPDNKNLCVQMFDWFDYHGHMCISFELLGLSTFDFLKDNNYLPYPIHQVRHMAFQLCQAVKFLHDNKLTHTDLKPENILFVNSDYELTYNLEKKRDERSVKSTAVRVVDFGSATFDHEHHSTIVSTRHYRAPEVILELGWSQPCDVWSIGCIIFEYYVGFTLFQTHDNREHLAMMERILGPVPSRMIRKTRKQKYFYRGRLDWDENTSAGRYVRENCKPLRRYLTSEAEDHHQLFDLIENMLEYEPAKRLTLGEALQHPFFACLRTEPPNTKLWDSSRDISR

GSK-3 = assay type: biochemical, porcine; settings: for IC50: 15 μmol/L ATP, read-out: IC50 GSK3
DYRK2 = target: T2, DYRK2 (Homo sapiens, UniProt Q92630); assay type: biochemical; settings: for IC50: 15 μmol/L ATP, read-out: IC50 DYRK 2
T2 sequence (Q92630 1-601): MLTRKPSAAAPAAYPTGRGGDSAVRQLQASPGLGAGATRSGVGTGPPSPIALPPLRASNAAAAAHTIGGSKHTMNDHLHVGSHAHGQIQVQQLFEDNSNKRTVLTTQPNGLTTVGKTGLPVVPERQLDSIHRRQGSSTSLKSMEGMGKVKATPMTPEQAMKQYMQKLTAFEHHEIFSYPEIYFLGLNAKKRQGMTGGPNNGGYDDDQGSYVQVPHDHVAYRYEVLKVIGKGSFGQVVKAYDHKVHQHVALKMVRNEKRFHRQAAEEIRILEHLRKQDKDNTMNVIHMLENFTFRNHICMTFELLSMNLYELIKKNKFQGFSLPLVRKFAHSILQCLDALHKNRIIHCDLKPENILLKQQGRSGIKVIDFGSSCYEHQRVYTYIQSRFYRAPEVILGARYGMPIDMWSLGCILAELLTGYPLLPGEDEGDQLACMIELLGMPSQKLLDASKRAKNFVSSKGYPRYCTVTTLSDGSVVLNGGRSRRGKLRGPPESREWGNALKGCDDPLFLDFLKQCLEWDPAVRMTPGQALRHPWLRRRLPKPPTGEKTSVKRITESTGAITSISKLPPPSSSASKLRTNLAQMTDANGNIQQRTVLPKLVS

CLK1 = CLK1 (Mus musculus, UniProt P22518)
Sequence of CLK1 (P22518 whole entry): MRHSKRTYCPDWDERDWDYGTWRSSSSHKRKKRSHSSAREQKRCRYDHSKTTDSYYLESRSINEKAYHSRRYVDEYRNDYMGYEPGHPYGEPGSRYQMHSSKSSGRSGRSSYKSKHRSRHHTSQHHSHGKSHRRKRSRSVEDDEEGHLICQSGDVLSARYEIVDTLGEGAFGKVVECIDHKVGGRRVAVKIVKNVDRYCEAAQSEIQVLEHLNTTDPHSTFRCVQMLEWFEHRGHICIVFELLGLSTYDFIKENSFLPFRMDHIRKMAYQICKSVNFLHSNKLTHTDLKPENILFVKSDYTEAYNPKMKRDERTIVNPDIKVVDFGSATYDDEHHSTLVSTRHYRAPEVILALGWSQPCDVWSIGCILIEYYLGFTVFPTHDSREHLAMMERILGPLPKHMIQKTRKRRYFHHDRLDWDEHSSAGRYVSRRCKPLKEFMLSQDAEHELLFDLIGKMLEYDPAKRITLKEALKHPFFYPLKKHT

CDK5/p25 = target: T3, CDK5/p25 (Homo sapiens, UniProt Q00535); assay type: biochemical; settings: for IC50: 15 μmol/L ATP
T3 construct: made in house
T3 sequence (Q00535 whole entry): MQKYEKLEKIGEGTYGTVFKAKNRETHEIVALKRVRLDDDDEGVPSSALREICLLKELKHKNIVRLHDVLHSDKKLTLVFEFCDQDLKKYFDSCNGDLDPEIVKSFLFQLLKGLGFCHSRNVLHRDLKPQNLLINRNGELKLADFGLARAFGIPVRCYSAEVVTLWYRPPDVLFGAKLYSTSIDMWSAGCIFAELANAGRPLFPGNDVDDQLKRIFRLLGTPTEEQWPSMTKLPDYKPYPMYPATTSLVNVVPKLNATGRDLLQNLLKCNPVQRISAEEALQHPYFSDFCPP
T3 sequence (Q15078 99-307 partner limits assumed): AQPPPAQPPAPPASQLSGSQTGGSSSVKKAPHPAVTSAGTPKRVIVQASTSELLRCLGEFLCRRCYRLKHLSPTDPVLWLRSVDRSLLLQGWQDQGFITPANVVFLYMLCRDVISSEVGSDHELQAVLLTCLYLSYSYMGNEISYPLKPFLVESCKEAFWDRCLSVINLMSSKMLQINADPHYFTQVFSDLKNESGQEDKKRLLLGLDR

CDK2/cyclin A = target: T4, CDK2/cyclin A (Homo sapiens, UniProt P24941); assay type: biochemical; settings: for IC50: 15 μmol/L ATP, read-out: IC50 CDK2/cyclinA
T4 construct: made in house

Sequence of DYRK1B (Q9Y463 whole entry): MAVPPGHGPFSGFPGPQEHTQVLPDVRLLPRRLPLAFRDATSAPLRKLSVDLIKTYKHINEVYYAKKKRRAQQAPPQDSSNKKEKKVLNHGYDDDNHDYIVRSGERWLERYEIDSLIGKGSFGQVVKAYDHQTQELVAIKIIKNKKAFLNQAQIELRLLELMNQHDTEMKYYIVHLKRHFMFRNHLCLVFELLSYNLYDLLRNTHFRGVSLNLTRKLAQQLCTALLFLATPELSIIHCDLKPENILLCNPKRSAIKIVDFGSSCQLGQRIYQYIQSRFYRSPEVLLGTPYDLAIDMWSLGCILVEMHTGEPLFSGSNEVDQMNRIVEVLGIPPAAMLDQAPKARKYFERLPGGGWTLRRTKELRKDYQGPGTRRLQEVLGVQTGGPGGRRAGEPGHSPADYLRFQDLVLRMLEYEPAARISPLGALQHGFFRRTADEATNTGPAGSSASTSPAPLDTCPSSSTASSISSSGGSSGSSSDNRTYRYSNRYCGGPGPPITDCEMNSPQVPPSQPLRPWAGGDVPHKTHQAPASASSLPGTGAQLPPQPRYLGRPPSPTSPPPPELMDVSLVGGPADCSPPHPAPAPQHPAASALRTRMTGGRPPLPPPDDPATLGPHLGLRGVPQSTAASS

SMILES	IC50 (DYRK1B)	IC50 (DYRK1A)	IC50 (CK1δ/ε)	IC50 (CDK9/cyclin T)	IC50 (CDK1/cyclin B)	IC50 (CLK4)	IC50 (CLK3)	IC50 (DYRK3)	IC50 (CLK2)	IC50 (GSK-3)	IC50 (CLK1)	IC50 (CDK5/p25)	IC50 (CDK2/cyclin A)	IC50 (DYRK2)	also measured
O=C1NCc2ccc3c(-c4ccccc4)c[nH]c3c21 [8a, 3-Phenyl-6,7-dihydropyrrolo[3,4-g]indol-8(1H)-one]	4.8 µM	> 10 µM	> 10 µM	> 10 µM	> 10 µM	0.12 µM	> 10 µM	> 10 µM	0.21 µM	> 10 µM	0.046 µM	> 10 µM	> 10 µM	–	remaining activity at 10 µM (DYRK1B; 10 µM concentration, ± SEM, read-out: Residual enzyme activity DYRK 1B): 51 ± 9%; remaining activity at 10 µM (DYRK1A; 10 µM concentration, ± SEM, read-out: Residual enzyme activity DYRK 1A): 61 ± 12%; Residual enzyme activity CK1 (CK1δ/ε; 10 µM concentration, ± SEM): 91±4%; remaining activity at 10 µM (CDK9/cyclin T; read-out: Residual enzyme activity CDK9/cyclin T): 85 ± 5%; Residual enzyme activity CDK1/cyclin B (CDK1/cyclin B; 10 µM concentration, ± SEM): 71±21%; remaining activity at 10 µM (CLK4; read-out: Residual enzyme activity CLK 4): 2%; remaining activity at 10 µM (CLK3; read-out: Residual enzyme activity CLK 3): 78 ± 9%; remaining activity at 10 µM (DYRK3; 10 µM concentration, ± SEM, read-out: Residual enzyme activity DYRK 3): 102 ± 13%; remaining activity at 10 µM (CLK2; read-out: Residual enzyme activity CLK 2): 14 ± 3%; Residual enzyme activity GSK3 (GSK-3; 10 µM concentration, ± SEM): 111±19%; remaining activity at 10 µM (DYRK2; 10 µM concentration, ± SEM, read-out: Residual enzyme activity DYRK 2): 69 ± 15%; remaining activity at 10 µM (CLK1; read-out: Residual enzyme activity CLK 1): 8 ± 2%; remaining activity at 10 µM (CDK5/p25; 10 µM concentration, ± SEM, read-out: Residual enzyme activity CDK5/p25): 107 ± 20%; remaining activity at 10 µM (CDK2/cyclin A; 10 µM concentration, ± SEM, read-out: Residual enzyme activity CDK2/cyclin A): 101 ± 6%
O=C1NCc2ccc3c(-c4ccc(Cl)cc4)c[nH]c3c21 [8d, 3-(4-Chlorophenyl)-6,7-dihydropyrrolo[3,4-g]indol-8(1H)-one]	> 10 µM	> 10 µM	> 10 µM	> 10 µM	> 10 µM	0.13 µM	1.8 µM	> 10 µM	0.17 µM	> 10 µM	0.1 µM	> 10 µM	> 10 µM	9.3 µM	–
O=C1NCc2ccc3c(-c4ccc(Cl)c(Cl)c4)c[nH]c3c21 [8e, 3-(3,4-Dichlorophenyl)-6,7-dihydropyrrolo[3,4-g]indol-8(1H)-one]	> 10 µM	> 10 µM	> 10 µM	> 10 µM	> 10 µM	0.13 µM	> 10 µM	> 10 µM	0.69 µM	> 10 µM	0.11 µM	> 10 µM	> 10 µM	> 10 µM	–
O=C1NCc2ccc3c(-c4cccc(O)c4)c[nH]c3c21 [8g, 3-(3-Hydroxyphenyl)-6,7-dihydropyrrolo[3,4-g]indol-8(1H)-one]	0.39 µM	0.74 µM	> 10 µM	1.1 µM	> 10 µM	0.081 µM	1.7 µM	2.2 µM	0.082 µM	> 10 µM	0.044 µM	> 10 µM	> 10 µM	0.59 µM	–
CC(=O)Oc1cccc(-c2c[nH]c3c4c(ccc23)CNC4=O)c1 [8h, 3-(8-Oxo-1,6,7,8-tetrahydropyrrolo[3,4-g]indol-3-yl)phenyl acetate]	1.5 µM	1.4 µM	> 10 µM	> 10 µM	> 10 µM	0.13 µM	3.3 µM	6.1 µM	0.32 µM	> 10 µM	0.17 µM	> 10 µM	> 10 µM	2.4 µM	–
Cc1cccc(-c2c[nH]c3c4c(ccc23)CNC4=O)c1 [8i, 3-(3-Methylphenyl)-6,7-dihydropyrrolo[3,4-g]indol-8(1H)-one]	4.1 µM	2.6 µM	> 10 µM	> 10 µM	> 10 µM	0.14 µM	5.1 µM	> 10 µM	0.41 µM	> 10 µM	0.061 µM	> 10 µM	> 10 µM	3.1 µM	–
